Patent US20260327250A1, “3-ETHYLAMINO-INDOLE DIMERS AS SEROTONERGIC AGENTS USEFUL FOR THE TREATMENT OF DISORDERS RELATED THERETO” (MINDSET PHARMA INC., priority 2022, published 2026)
Counter-ions that a name gives are not always drawn. Like-named read-outs stand apart in the source and are kept apart here.

Molecular target: T1, human 5-hydroxytryptamine receptor 2A (5-HT2A) (Homo sapiens, UniProt P28223)
T1 construct: expressed in transfected cells; host or cells: HTR2A&Ga15-HEK293
Experiment: Human 5-HT2A functional FLIPR assay (agonist mode)
Assay type: cell-based
Settings: for RFU@10 μM: footnote: Curve fitting with activation (%) @ 10 mM with RFU
Experimental: To assess the potential excitatory effects of compounds targeting on human 5-hydroxytryptamine receptor 2A (5-HT2A) under agonist mode
HTR2A&Ga15-HEK293 cells were cultured in DMEM medium containing 10% dialyzed FBS and 1× penicillin-streptomycin, 100 μg/mL Hygromycin B and 300 μg/mL G418. The cells were passaged about three times a week, maintained between ~30% to ~90% confluence.
• 1. The cell culture medium (DMEM medium containing 10% dialyzed FBS and 1× penicillin-streptomycin, 100 μg/mL Hygromycin B and 300 μg/mL G418), TrypLE™ Express and DPBS was warmed to R. T. in advance. • 2. For induction, 1 μg/ml tetracycline (final concentration) was added to cell culture medium and incubated for 48 hours prior to seeding cells into plate at 37° C., 5% (v/v) CO2. The cell culture medium was removed from flask. Washed cells with DPBS. • 3. 2 mL TrypLE™ Express was added to the flask, mixed well by gentle shaking and cells incubated at 37° C. for a few minutes. • 4. The cells morphological change was checked under microscope, and the digestion stopped by adding 4 mL cell culture medium to the flask when most of cells turned to round. • 5. The cell suspension was transferred into a 15 mL centrifuge tube, and then centrifuged at 1,200 rpm for 5 minutes. • 6. The supernatant was removed. The cell pellet was resuspended with 2 mL cell culture medium. • 7. The cell density was counted using cell counter. Only cells with >85% viability were used for the assay. • 8. Cells were diluted to 6.67×10^5/mL with cell culture medium. • 9. 30 μL/well cell suspensions was added into a 384-well cell plate (The cell density was 20,000 cells/well). • 10. The cell plate was incubated overnight at 37° C., 5% (v/v) CO2. 2.3 Cell handling • 1. On the day of experiments, culture medium was removed from the cell plate. • 12. 10 μL of assay buffer (20 mM HEPES, in 1× HBSS, pH 7.4) was added to each well of the cell plate. • 3. 2×dye solution was prepared following the manual of the FLIPR® Calcium 6 Assay Kit: • i. The dye was diluted with assay buffer. • ii. Probenecid was added to the final concentration of 5 mM. • iii. Vortexed vigorously for 1-2 minutes. • 4. 10 μL of 2× dye solution was added to each well of the cell plate • 5. The cell plate was placed on plate shaker, and was shaken at 600 rpm for 2 minutes. • 6. The plate was incubated at 37° C. for 2 hours followed by an additional 15-minute incubation at 25° C. 2.4 Prepare 3×compound • 1, Serotonin HCl was prepared to the concentration of 10 mM with DMSO. • 2. The test compounds were prepared to the concentration of 10 mM with DMSO. • 3. The compounds were added to a 384-well compound source plate. • 4. 3-folds serial dilutions were performed with DMSO. • 5. 90 nL/well of serial diluted compounds were transferred from source plate to a 384-well compound plate by using an Echo. • 6. 30 μL/well of assay buffer (20 mM HEPES in 1× HBSS, pH 7.4) were added to the compound plate. • 7. Mixed on the plate-on-plate shaker for 2 minutes.
• 1, After the cells were incubated with dye solution, the cell plate, compound plate containing 3×compounds and FLIPR tips were placed into FLIPR. • 2, 10 μL of 3×compounds were transferred from the compound plate to the cell plate by FLIPR. • 3, The plate was read for 160 sec with 1 sec interval to obtain the data of agonist mode.
• 1, The normalized fluorescence reading (RFU) was calculated as shown below, wherein Fmax and Fmin stand for maximum and minimum of calcium signal during defined time window:
[formula] • 2. EC50 was calculated by fitting RFU against log of compound concentrations with Hill equation using XLfit.

[1] = FLIPR, agonist mode, ND = Not detected, read-out: h5-HT2A, EC50

T1 sequence (P28223 whole entry): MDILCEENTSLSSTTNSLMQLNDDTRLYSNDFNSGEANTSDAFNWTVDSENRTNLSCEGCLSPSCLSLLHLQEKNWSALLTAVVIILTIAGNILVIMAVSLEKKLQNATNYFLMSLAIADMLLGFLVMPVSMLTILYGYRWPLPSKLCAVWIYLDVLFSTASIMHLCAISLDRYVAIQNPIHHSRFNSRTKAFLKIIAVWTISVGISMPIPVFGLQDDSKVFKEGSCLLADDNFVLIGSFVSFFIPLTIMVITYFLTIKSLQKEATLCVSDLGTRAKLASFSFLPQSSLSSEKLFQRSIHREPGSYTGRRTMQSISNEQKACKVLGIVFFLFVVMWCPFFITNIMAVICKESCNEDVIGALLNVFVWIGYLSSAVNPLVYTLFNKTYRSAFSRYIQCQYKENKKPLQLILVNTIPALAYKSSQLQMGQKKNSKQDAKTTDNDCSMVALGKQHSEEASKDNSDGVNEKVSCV

Compound	RFU@10 μM [RFU]	EC50 [1] [nM]	EC50 [nM]
CN(C)CCc1c[nH]c2cccc(OP(=O)(O)O)c12 [Psilocybin]	257	–	–
CC(C)N(CCc1c[nH]c2cccc(O)c12)C(C)C [Compound 7]	6358	81.4	–
CC(C)N(CCc1c[nH]c2cccc(OC(=O)CCCC(=O)Oc3cccc4[nH]cc(CCN(C(C)C)C(C)C)c34)c12)C(C)C [Compound I-37, Bis(3-(2-(diisopropylamino)ethyl)-1H-indol-4-yl) glutarate dihydrochloride]	6768	–	158
CN(C)CCc1c[nH]c2cccc(O)c12 [Psilocin, 4-hydroxy-N,N-dimethyltryptamine, reference compound]	308	–	–
CN(C)CCc1c[nH]c2cccc(OC(=O)CCCC(=O)Oc3cccc4[nH]cc(CCN(C)C)c34)c12 [Compound I-24, Bis(3-(2-(dimethylamino)ethyl)-1H-indol-4-yl) glutarate]	3061	24.9	–
